Assay results as given in patent US20240018125A1, “CYCLIC ISOTHIOUREA DERIVATIVES AS CXCR4 MODULATORS” (ERMIUM THERAPEUTICS, priority 2020, published 2024).
Structures can show the parent of a compound that is named as a salt.

Assays:
[1] = tested on: peripheral blood mononuclear cells (PBMCs) from healthy donors; experiment: IFN production by R848-activated PBMCs, quantified with twINNE luciferase reporter cell line; assay type: cell-based, human; conditions: Homo sapiens, PBMC; read-out: IC50 of anti-inflammatory activity (IFN production by activated PBMCs)
Procedure, shortened: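 Functional IFN was quantified by luciferase output from the twINNE ISRE-reporter line after 24 h on conditioned supernatants. Those supernatants came from human PBMCs (4.10^6/mL) pre-treated with compound and then stimulated for 24 h with 5 μg/mL resiquimod. IC50s were fitted by nonlinear variable-slope regression.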

[2] = biological target: T1, Recombinant CXCR4 receptor (Homo sapiens, UniProt P61073); experiment: G.Validation fluorescence assay of CXCR4 receptor conformational changes in lipidic micelles SB2L4 and SB3L1; assay type: biochemical; conditions: ligand 150 μM over basal state, 5 μM labelled CXCR4, 40 min
T1 construct: host or cells: HEK-293 T cells
T1 sequence (P61073 whole entry): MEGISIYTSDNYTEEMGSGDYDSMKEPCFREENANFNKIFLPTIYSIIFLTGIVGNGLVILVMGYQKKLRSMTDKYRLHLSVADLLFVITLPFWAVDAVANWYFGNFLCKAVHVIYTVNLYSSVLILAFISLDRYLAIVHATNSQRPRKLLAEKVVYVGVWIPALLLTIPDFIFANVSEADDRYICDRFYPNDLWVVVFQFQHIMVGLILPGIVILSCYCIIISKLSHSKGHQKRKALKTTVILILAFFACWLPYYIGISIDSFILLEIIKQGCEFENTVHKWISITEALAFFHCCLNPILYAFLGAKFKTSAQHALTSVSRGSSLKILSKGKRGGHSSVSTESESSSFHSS
Description: G.Validation® assay is […] biotech proprietary fluorescence based assay that assesses conformational changes of a receptor upon activation/inactivation. Recombinant CXCR4 receptor is produced and purified from HEK-293 T cells using […] proprietary mixes. Receptor is then reconstituted in detergent buffers containing lipids mimicking the lipidic composition of dendritic cells (DC) and macrophages (SB2L4 and SB3L1). Thereafter, the receptor is labelled with a non-modifying probe allowing the detection of the activation state and conformational change of the receptor upon addition of a ligand. Indeed, the probe emission spectra maximum wavelength (Amax) shifts according to activation/inactivation of the receptor. Thus, kinetic of activation/inactivation of the receptor can be followed by monitoring Amax shift after addition of a ligand over time. Emission spectra were registered for 40 minutes after addition of each ligand. […] Activation/inactivation kinetics were also followed using an exemplary compound of formula (I), i.e.

[3] = tested on: irrelevant G-protein coupled receptor (GPCR); experiment: G.Validation fluorescence assay on irrelevant GPCR control; assay type: biochemical; conditions: SDF1α 15 μM, AMD3100 100 μM, Example 60 150 μM; SB3L1
[4] = tested on: 129S8 mice infected with influenza A virus H3 N2 (X31); experiment: In vivo immunomodulating effect (type 1 IFNs in BALF) in acute influenza inflammation model; parameters: species or system mouse; conditions: […]; even lower than after ibuprofen
[5] = tested on: Female Balb/c mice, pristane-induced lupus; experiment: In vivo pristane-induced lupus mouse model, anti-dsDNA antibody titers in serum by ELISA
Method: Female Balb/c mice (6 to 8 weeks, ENVIGO, Indianapolis, USA) received a single i.p. injection with 0.5 mL of pristane (Sigma-Aldrich, St Louis, USA) to induce a lupus-like disease. That same day, once daily treatment was started (10 mL/kg), either with vehicle control (PBS) i.p., with prednisolone (Sigma-Aldrich, St Louis, USA) in PBS p.o. at a dose of 15 mg/kg (positive control), or with an exemplary compound of formula (I), i.e. Example 60, at a dose of either 3 mg/kg, 10 mg/kg or 30 mg/kg in PBS i.p. After 4, 6 and 8 weeks of dosing, sample bleeds for each mouse were collected via the orbital sinus, and immediately cold processed to sera and stored (50 μl) at −80° C. until analysis. In serum, anti-dsDNA antibody titers are determined using ELISA. Optical density was measured at 450 nm (OD450) using a microplate reader. Data are reported as anti-dsDNA Ab titers (OD), mean±S.E.M. as well as the statistical significance versus pristane-induced vehicle treated group using t-tests.

## Clc1ccc2c(c1)CN=C(SCCCCN1CCCC1)N2 [Example 60, 6-chloro-2-((4-(pyrrolidin-1-yl)butyl)thio)-1,4-dihydroquinazoline dihydrochloride]
[1]
  IC50: ≤ 10 µM
[2]
  CXCR4 structural activation/inactivation, Amax shift in fluorescence: blue shift
[3]
  irrelevant GPCR activation state, Amax shift in fluorescence: Neither benchmark ligands SDF1α and AMD3100, nor Example 60 showed any effect
[4]
  concentration of IFNα in BALF vs vehicle-treated infected mice: significantly decreased
  concentration of IFNβ in BALF vs vehicle-treated infected mice: significantly decreased
  concentration of IFNλ2/3 in BALF vs vehicle-treated infected mice: significantly decreased
[5]; 3 mg/kg i.p. once daily, week 4
  anti-dsDNA Ab titers in serum vs vehicle-treated pristane-induced mice: reduced
[5]; 10 mg/kg i.p. once daily, week 4
  anti-dsDNA Ab titers in serum vs vehicle-treated pristane-induced mice: reduced
[5]; 10 mg/kg i.p. once daily, week 8, same range as prednisolone
  anti-dsDNA Ab titers in serum vs vehicle-treated pristane-induced mice: significantly decreased
[5]; 30 mg/kg i.p. once daily, week 4
  anti-dsDNA Ab titers in serum vs vehicle-treated pristane-induced mice: reduced
[5]; 30 mg/kg i.p. once daily, week 6
  anti-dsDNA Ab titers in serum vs vehicle-treated pristane-induced mice: significantly lower
[5]; 30 mg/kg i.p. once daily, week 8, same range as prednisolone
  anti-dsDNA Ab titers in serum vs vehicle-treated pristane-induced mice: significantly decreased
